Data from US7189754B2, “Pyrrolidine ester derivatives with oxytocin modulating activity” (Applied Research Systems ARS Holding NV, priority 2001, dated 2007).
pIC50: −log10 of the molar value.

Legend:
[1] = biological target: T1, human Oxytocin (hOT) receptor (Homo sapiens, UniProt P30559); experiment: In vitro competition binding assay on hOT receptor with scintillation proximity assay ([125I]-OVTA); details: HEK293EBNA membranes expressing hOT receptor, 0.2 nM [125I]-OVTA, SPA; read-out: Binding affinity human OT-R IC50
T1 construct: expressed in transfected cells; host or cells: HEK293EBNA
T1 sequence (P30559 1-389): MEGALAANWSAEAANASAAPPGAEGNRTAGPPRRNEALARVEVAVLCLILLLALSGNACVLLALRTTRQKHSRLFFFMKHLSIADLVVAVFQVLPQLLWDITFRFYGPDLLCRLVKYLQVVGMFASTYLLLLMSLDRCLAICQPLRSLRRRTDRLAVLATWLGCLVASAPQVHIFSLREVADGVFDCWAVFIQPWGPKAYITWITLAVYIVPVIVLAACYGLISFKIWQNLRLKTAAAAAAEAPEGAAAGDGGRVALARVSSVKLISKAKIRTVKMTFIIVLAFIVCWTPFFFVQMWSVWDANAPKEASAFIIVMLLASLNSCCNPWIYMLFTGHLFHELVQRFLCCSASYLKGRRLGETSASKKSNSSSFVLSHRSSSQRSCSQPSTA
Method: a) In Vitro Competition Binding Assay on hOT Receptor with Scintillation Proximity Assay (see Cook, N. D. et al. Pharmaceutical Manufacturing International 1992; p.49–53)
This assay allows to determine the affinity of the test compounds for the human Oxytocin (hOT) receptor. Membranes from HEK293EBNA (cells expressing the hOT receptor) were suspended in buffer containing 50 mM Tris-HCl, pH 7.4, 5 mM MgCl2 and 0.1% BSA (w/v). The membranes (2–4 μg) were mixed with 0.1 mg SPA bead coated with wheat-germ aglutinin (WGA-PVT-Polyethylene Imine beads from Amersham) and 0.2 nM of the radiolabelled [^125I]-OVTA (OVTA being Ornithin Vasoactive, an analogue of OT for competitive binding experiments). Non-specific binding was determined in the presence of 1 μM Oxytocin. The total assay volume was 100 μl. The plates (Corning® NBS plate) were incubated at room temperature for 30 min and counted on a Mibrobeta® plate scintillation counter. Competitive binding was performed in presence of compounds of formula (I) at the following concentrations: 30 μM, 10 μM, 1 μM, 300 nM, 100 nM, 10 nM, 1 nM, 100 pM, 10 pM. The competitive binding data were analysed using the iterative, nonlinear, curve-fitting program, “Prism” (GraphPad Software, Inc).
The ability of the pyrrolidine derivatives of formula (I) to inhibit the binding of ^125I-OVTA to the OT-receptor was assessed using the above described in vitro biological assay. Representative values for some example compounds are given in Table 1, where the binding affinity of the compounds is expressed by the IC50 (μM) which is the concentration upon which 50% inhibition of OT-R is achieved. From these values, it can be derived that said test compounds according to formula (I) do show a significant binding to the oxytocin receptor.

[2] = biological target: T2, ratOT-R (Rattus norvegicus, UniProt P70536); experiment: Functional assay No. 2: inhibition of IP3-synthesis in HEK/EBNA-OTR cells; assay type: cell-based; details: oxytocin 10 nM, [3H]-inositol
T2 construct: expressed in transfected cells; host or cells: HEK/EBNA
T2 sequence (P70536 1-388): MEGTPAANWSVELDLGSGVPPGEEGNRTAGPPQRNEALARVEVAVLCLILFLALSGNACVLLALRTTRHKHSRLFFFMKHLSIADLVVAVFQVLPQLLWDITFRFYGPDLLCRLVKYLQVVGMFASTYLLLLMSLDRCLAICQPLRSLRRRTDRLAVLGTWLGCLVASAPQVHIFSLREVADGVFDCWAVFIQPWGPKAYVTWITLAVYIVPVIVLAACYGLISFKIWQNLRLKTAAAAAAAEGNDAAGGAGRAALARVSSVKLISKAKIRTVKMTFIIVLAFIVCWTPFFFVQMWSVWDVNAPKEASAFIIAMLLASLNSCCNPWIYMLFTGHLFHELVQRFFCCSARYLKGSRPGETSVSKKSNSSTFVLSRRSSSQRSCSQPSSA
Source text: c) Functional Assay No. 2: Inhibition of IP3 (Inositol Tri-Phosphate)-Synthesis in HEK/EBNA-OTR cells
The interaction of OT on the OT-receptor leads to the IP3 synthesis, IP3 being a second messenger for the Ca^2+ release from sarcoplasmic reticulum, involved in the uterine contraction triggering process (see Mitchell, B. F. and Schmid, B. J. Soc. Gynecol. Invest. 2001, 8,122–33).
This assay can be used to show the inhibition of the OT/OT-R mediated IP3 synthesis by using test compounds of formula (I).
Stimulation of the cells: HEK/EBNA OTR (rat or human) cells are plated out-into costar 12-well plates, and equilibrated for 15–24 h with 4 μCi/ml radiolabelled [^3H]-Inositol with 1% FCS (0.5 ml/well) and without inositol supplement. The medium containing the label is aspirated. […]
The amount of the radiolabelled IP3 may be determined through the ensuing work-up. […]
Elution of total IP's: Elution is achieved using 3 ml 1M ammonium formate/0.1M formic acid. […] The amount of [^3H]-IP3 is determined by a scintillating counter.
The ability of compounds of formula(I) to effectively antagonize oxytocin-induced IP3synthesis mediated by the oxytocin receptor, can be assessed using the above described in vitro biological assay.

pIC50 [1]	pIC50 [2]	Structure (SMILES)
7.44	7.11	CO/N=C1\C[C@@H](C(=O)OC)N(C(=O)c2ccc(-c3ccccc3C)cc2)C1 [Methyl (2S,4E)-4-(methoxyimino)-1-[(2′-methyl[1,1′-biphenyl]-4-yl)carbonyl]-2-pyrrolidinecarboxylate]
7.92	7.64	CO/N=C1/C[C@@H](C(=O)OC)N(C(=O)c2ccc(-c3ccccc3C)cc2)C1 [Methyl (2S,4Z)-4-(methoxyimino)-1-[(2′-methyl[1,1′-biphenyl]-4-yl)carbonyl]-2-pyrrolidinecarboxylate]
